# Measurements taken from ChEMBL document CHEMBL1158091, “Amphimedosides, 3-alkylpyridine glycosides from a marine sponge Amphimedon sp” (J Nat Prod, 2006).
# System: P388
# Test: Cytotoxicity against mouse P388 cells by MTT assay
# Format: functional, cell-based
row,SMILES,IC50 [µg/mL]
1,CON(CCCC/C=C\CCCCCCCCc1cccnc1)[C@@H]1O[C@H](CO)[C@@H](O)[C@H](O)[C@H]1O [AMPHIMEDOSIDE E],2.2
2,CON(CCCCCCCCCCC#CCCCCc1cccnc1)[C@@H]1O[C@H](CO)[C@@H](O)[C@H](O)[C@H]1O [AMPHIMEDOSIDE A],11
3,CON(CC(C)CCCCCCCCCCc1cccnc1)[C@@H]1O[C@H](CO)[C@@H](O)[C@H](O)[C@H]1O (stereo not given in full) [AMPHIMEDOSIDE D],0.45
4,CON(CCCCCCCCC#CCCCCc1cccnc1)[C@@H]1O[C@H](CO)[C@@H](O)[C@H](O)[C@H]1O [AMPHIMEDOSIDE B],11
5,CON(CCCCCCCCCCC#CCCc1cccnc1)[C@@H]1O[C@H](CO)[C@@H](O)[C@H](O)[C@H]1O [AMPHIMEDOSIDE C],5
